In patent publication US20250032457A1, “METHODS OF TREATING ANDROGENIC ALOPECIA AND/OR SKIN CONDITIONS” (priority 2020, published 2025):

Tested on: scalp of a human subject (hairline recession, hair loss and thinning)
Experiment: Topical administration to the scalp of a human subject with hairline recession, hair loss and thinning
Conditions: 2% miconazole nitrate formulation, twice per day, observed after 3 months, one human subject, FIG. 2 vs FIG. 1
Description: Hairline recession, hair thinning, and hair loss were observed prior to administration.

## Clc1ccc(COC(Cn2ccnc2)c2ccc(Cl)cc2Cl)c(Cl)c1 (centres unmarked) [miconazole]
Topical on scalp
  hairline recession: reversal of hairline recession
  hair growth on the scalp: promotion of hair growth elsewhere on the scalp
